Test results reported in US8865703B2, “Pyridyltriazoles” (Boehringer Ingelheim International GmbH, priority 2010, dated 2014).

Molecular target: T1, B-Raf (V600E)-kinase (Homo sapiens, UniProt P15056, V600E)
T1 construct: purchased Upstate
Experiment: Kinase test B-Raf (V600E)
Assay type: biochemical
Conditions: 1 h incubation with kinase before start, 250 μM ATP, biotinylated MEK1 substrate
Description: Kinase Test B-Raf (V600E)
In a dilution series 10 μL/well of test substance solution are placed in a multiwell plate. The dilution series is selected so that generally a range of concentrations of 2 μM to 0.119 nM or 0.017 nM is covered. If necessary the initial concentration of 2 μM is changed to 50 μM, 10 μM, 0.4 μM or 0.2857 μM and further dilution is carried out accordingly. The final concentration of DMSO is 5%. 10 μL/well of the B-Raf (V600E)-kinase solution are pipetted in (containing 0.5 ng B-Raf (V600E)-kinase, e.g. from Upstate) in 20 mM tris-HCl pH 7.5, 0.1 mM EDTA, 0.1 mM EGTA, 0.286 mM sodium orthovanadate, 10% glycerol, 1 mg/mL bovine serum albumin, 1 mM dithiothreitol) and the mixture is incubated for 1 h at RT with shaking. The kinase reaction is started by the addition of 20 μL/well ATP solution [final concentration: 250 μM ATP, 30 mM tris-HCl pH 7.5, 0.02% Brij, 0.2 mM sodium orthovanadate, 10 mM magnesium acetate, 0.1 mM EGTA, phosphatase cocktail (Sigma, # P2850, dilution recommended by the manufacturer)] and 10 μL/well MEK1 solution [containing 50 ng biotinylated MEK1 (prepared from purified MEK1 according to standard procedure, e.g. with EZ-Link Sulpho-NHS-LC-Biotin reagent, Pierce, #21335)] and carried out for 60 min at RT with constant shaking. The reaction is stopped by the addition of 12 μL/well of a 100 mM EDTA solution and incubation is continued for a further 5 min. 55 μL/well of the reaction solution are transferred into a streptavidin-coated plate (e.g. Streptawell HighBond, Roche, #11989685001) and gently shaken for 1 h at RT in order to bind biotinylated MEK1 to the plate. After elimination of the liquid the plate is washed five times with 200 μL/well of 1×PBS and 100 μL/well solution of primary antibody plus europium-labelled secondary antibody [Anti Phospho-MEK (Ser217/221), Cell Signaling, #9121 and Eu-N1 labelled goat-anti-rabbit antibody, Perkin Elmer, # AD0105] is added, the primary antibody is diluted 1:2000 and the secondary antibody is diluted to 0.4-0.5 μg/mL in Delfia Assay Buffer (Perkin Elmer, #1244-111). After 1 h shaking at RT the solution is poured away and washed five times with 200 μL/well Delfia Wash Buffer (Perkin Elmer, #4010-0010/#1244-114). After the addition of 200 μL/well Enhancement Solution (Perkin Elmer, #4001-0010/#1244-105) the mixture is shaken for 10 min at RT and then measured in a Wallac Victor using the program “Delfia Time Resolved Fluorescence (Europium)”. IC50 values are obtained from these dosage-activity curves using a software program (GraphPadPrizm).

T1 sequence (P15056 whole entry V600E): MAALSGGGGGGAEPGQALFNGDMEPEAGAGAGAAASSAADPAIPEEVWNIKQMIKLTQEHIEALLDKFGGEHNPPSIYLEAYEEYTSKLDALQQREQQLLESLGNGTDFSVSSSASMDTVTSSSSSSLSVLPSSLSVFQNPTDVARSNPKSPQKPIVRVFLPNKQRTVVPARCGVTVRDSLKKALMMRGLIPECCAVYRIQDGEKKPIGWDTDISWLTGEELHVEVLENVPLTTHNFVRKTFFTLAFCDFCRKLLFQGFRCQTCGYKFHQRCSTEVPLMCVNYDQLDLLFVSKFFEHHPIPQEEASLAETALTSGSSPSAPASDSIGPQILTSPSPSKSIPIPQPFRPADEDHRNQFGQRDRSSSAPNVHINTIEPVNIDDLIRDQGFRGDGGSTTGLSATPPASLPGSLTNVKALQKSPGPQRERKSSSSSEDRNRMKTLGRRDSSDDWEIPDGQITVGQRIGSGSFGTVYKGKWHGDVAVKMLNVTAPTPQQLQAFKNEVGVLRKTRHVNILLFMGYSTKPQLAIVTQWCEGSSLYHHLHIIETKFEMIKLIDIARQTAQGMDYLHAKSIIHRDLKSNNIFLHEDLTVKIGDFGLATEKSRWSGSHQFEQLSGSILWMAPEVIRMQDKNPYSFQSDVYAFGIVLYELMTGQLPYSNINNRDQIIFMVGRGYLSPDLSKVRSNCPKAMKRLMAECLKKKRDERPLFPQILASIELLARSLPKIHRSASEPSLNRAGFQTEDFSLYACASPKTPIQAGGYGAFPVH

| SMILES | IC50 [nM] |
| --- | --- |
| CCCN1CCN(c2cncc(-c3cn(-c4cc(NC(=O)c5cc(C(C)C)n(C(C)(C)C)n5)cnc4C)nn3)c2)CC1 [I-40] | 26 |
| CCOCCN1CCN(c2cncc(-c3cn(-c4cc(NC(=O)c5ccc(C(C)(C)C)o5)cnc4C)nn3)c2)CC1 [I-7] | 5 |
| CCCN1CCN(c2cncc(-c3cn(-c4cc(NC(=O)c5cc(CC)n(C(C)(C)C)n5)cnc4C)nn3)c2)CC1 [I-28] | 7 |
| Cc1ncc(NC(=O)c2ccc(C(C)(C)C)s2)cc1-n1cc(-c2cncc(N3CCN(C(C)C)CC3)c2)nn1 [I-13] | 5 |
| Cc1ncc(NC(=O)c2ccc(C(C)(C)C)s2)cc1-n1cc(-c2cncc(N3CCN(CC4CC4)CC3)c2)nn1 [I-10] | 6 |
| CCN1CCN(c2cncc(-c3cn(-c4cc(NC(=O)c5cc(C)n(C(C)(C)C)n5)cnc4C)nn3)c2)CC1 [I-20] | 7 |
| Cc1ncc(NC(=O)c2cc(C)n(C(C)(C)C)n2)cc1-n1cc(-c2cncc(N3CCN(C(C)C)CC3)c2)nn1 [I-19] | 8 |
| CCN1CCN(c2cncc(-c3cn(-c4cc(NC(=O)c5ccc(C(C)(C)C)o5)cnc4C)nn3)c2)CC1 [I-3] | 3 |
| CCc1cc(C(=O)Nc2cnc(C)c(-n3cc(-c4cncc(N5CCN(C6CC6)CC5)c4)nn3)c2)nn1C(C)(C)C [I-26] | 55 |
| CCCc1cc(C(=O)Nc2cnc(C)c(-n3cc(-c4cncc(N5CCN(CC)CC5)c4)nn3)c2)nn1C(C)(C)C [I-33] | 16 |
| CCc1cc(C(=O)Nc2cnc(C)c(-n3cc(-c4cncc(N5CCN(C)CC5)c4)nn3)c2)nn1C(C)(C)C [I-30] | 15 |
| Cc1ncc(NC(=O)c2cc(C)n(C(C)(C)C)n2)cc1-n1cc(-c2cncc(N3CCN(CCOC(C)C)CC3)c2)nn1 [I-25] | 16 |
| Cc1ncc(NC(=O)c2cc(C3CC3)n(C(C)(C)C)n2)cc1-n1cc(-c2cncc(N3CCN(C)CC3)c2)nn1 [I-41] | 16 |
| CCN1CCN(c2cncc(-c3cn(-c4cc(NC(=O)c5cc(C)n(C(C)C)n5)cnc4C)nn3)c2)CC1 [I-46] | 6 |
| Cc1ncc(NC(=O)c2cc(C)n(C(C)(C)C)n2)cc1-n1cc(-c2cncc(N3CCN(C(C)(C)C)CC3)c2)nn1 [I-21] | 9 |
| Cc1ncc(NC(=O)c2cc(C)n(C(C)(C)C)n2)cc1-n1cc(-c2cncc(N3CCCN(C(C)C)CC3)c2)nn1 [I-29] | 19 |
| Cc1ncc(NC(=O)c2cc(C)n(C(C)(C)C)n2)cc1-n1cc(-c2cncc(N3CCN(C4CC4)CC3)c2)nn1 [I-15] | 20 |
| CCc1cc(C(=O)Nc2cnc(C)c(-n3cc(-c4cncc(N5CCN(C(C)C)CC5)c4)nn3)c2)nn1C(C)(C)C [I-27] | 12 |
| CCOCCN1CCN(c2cncc(-c3cn(-c4cc(NC(=O)c5cc(C)n(C(C)(C)C)n5)cnc4C)nn3)c2)CC1 [I-24] | 16 |
| CCCN1CCN(c2cncc(-c3cn(-c4cc(NC(=O)c5cc(C6CC6)n(C(C)(C)C)n5)cnc4C)nn3)c2)CC1 [I-44] | 30 |
| Cc1ncc(NC(=O)c2ccc(C(C)(C)C)s2)cc1-n1cc(-c2cncc(N3CCN(C(C)(C)C)CC3)c2)nn1 [I-11] | 6 |
| Cc1ncc(NC(=O)c2cc(C)n(C(C)(C)C)n2)cc1-n1cc(-c2cncc(N3CCN(C)CC3)c2)nn1 [I-18] | 8 |
| CCOCCN1CCN(c2cncc(-c3cn(-c4cc(NC(=O)c5ccc(C(C)(C)C)s5)cnc4C)nn3)c2)CC1 [I-8] | 8 |
| Cc1ncc(NC(=O)c2cc(C3CC3)n(C(C)(C)C)n2)cc1-n1cc(-c2cncc(N3CCN(C(C)C)CC3)c2)nn1 [I-42] | 22 |
| Cc1ncc(NC(=O)c2cc(C)n(C(C)(C)C)n2)cc1-n1cc(-c2cncc(N3CCN(CC4CC4)CC3)c2)nn1 [I-22] | 11 |

| SMILES | IC50 [nM] |
| --- | --- |
| Cc1ncc(NC(=O)c2cc(C)n(C(C)C)n2)cc1-n1cc(-c2cncc(N3CCN(C(C)C)CC3)c2)nn1 [I-47] | 6 |
| CCCc1cc(C(=O)Nc2cnc(C)c(-n3cc(-c4cncc(N5CCN(C)CC5)c4)nn3)c2)nn1C(C)(C)C [I-36] | 18 |
| Cc1ncc(NC(=O)c2ccc(C(C)(C)C)o2)cc1-n1cc(-c2cncc(N3CCN(C(C)C)CC3)c2)nn1 [I-1] | 4 |
| Cc1ncc(NC(=O)c2ccc(C(C)(C)C)o2)cc1-n1cc(-c2cncc(N3CCN(CC4CC4)CC3)c2)nn1 [I-5] | 3 |
| CCCc1cc(C(=O)Nc2cnc(C)c(-n3cc(-c4cncc(N5CCN(C(C)C)CC5)c4)nn3)c2)nn1C(C)(C)C [I-34] | 23 |
| Cc1ncc(NC(=O)c2cc(C)n(C(C)(C)C)n2)cc1-n1cc(-c2cncc(N3CCCN(C)CC3)c2)nn1 [I-16] | 9 |
| Cc1ncc(NC(=O)c2ccc(C(C)(C)C)s2)cc1-n1cc(-c2cncc(N3CCN(C)CC3)c2)nn1 [I-14] | 2 |
| CCCc1cc(C(=O)Nc2cnc(C)c(-n3cc(-c4cncc(N5CCN(C6CC6)CC5)c4)nn3)c2)nn1C(C)(C)C [I-32] | 71 |
| Cc1ncc(NC(=O)c2cc(C)n(C(C)C)n2)cc1-n1cc(-c2cncc(N3CCN(C4CC4)CC3)c2)nn1 [I-49] | 22 |
| Cc1ncc(NC(=O)c2ccc(C(C)(C)C)o2)cc1-n1cc(-c2cncc(N3CCN(C(C)(C)C)CC3)c2)nn1 [I-4] | 4 |
| CCN1CCN(c2cncc(-c3cn(-c4cc(NC(=O)c5cc(C(C)C)n(C(C)(C)C)n5)cnc4C)nn3)c2)CC1 [I-39] | 25 |
| COCCCN1CCN(c2cncc(-c3cn(-c4cc(NC(=O)c5ccc(C(C)(C)C)s5)cnc4C)nn3)c2)CC1 [I-9] | 7 |
| Cc1ncc(NC(=O)c2cc(C(C)C)n(C(C)(C)C)n2)cc1-n1cc(-c2cncc(N3CCN(C(C)C)CC3)c2)nn1 [I-38] | 29 |
| CCCc1cc(C(=O)Nc2cnc(C)c(-n3cc(-c4cncc(N5CCN(CCC)CC5)c4)nn3)c2)nn1C(C)(C)C [I-35] | 22 |
| Cc1ncc(NC(=O)c2cc(C)n(C(C)C)n2)cc1-n1cc(-c2cncc(N3CCCN(C)CC3)c2)nn1 [I-50] | 5 |
| CCN1CCN(c2cncc(-c3cn(-c4cc(NC(=O)c5cc(C6CC6)n(C(C)(C)C)n5)cnc4C)nn3)c2)CC1 [I-43] | 22 |
| COCCCN1CCN(c2cncc(-c3cn(-c4cc(NC(=O)c5ccc(C(C)(C)C)o5)cnc4C)nn3)c2)CC1 [I-6] | 5 |
| Cc1ncc(NC(=O)c2cc(C)n(C(C)C)n2)cc1-n1cc(-c2cncc(N3CCN(C)CC3)c2)nn1 [I-45] | 9 |
| Cc1ncc(NC(=O)c2cc(C(C)C)n(C(C)(C)C)n2)cc1-n1cc(-c2cncc(N3CCN(C)CC3)c2)nn1 [I-37] | 17 |
| CCc1cc(C(=O)Nc2cnc(C)c(-n3cc(-c4cncc(N5CCN(CC)CC5)c4)nn3)c2)nn1C(C)(C)C [I-31] | 12 |
| CCCN1CCN(c2cncc(-c3cn(-c4cc(NC(=O)c5cc(C)n(C(C)(C)C)n5)cnc4C)nn3)c2)CC1 [I-17] | 10 |
| CCCN1CCN(c2cncc(-c3cn(-c4cc(NC(=O)c5cc(C)n(C(C)C)n5)cnc4C)nn3)c2)CC1 [I-48] | 8 |
| CCN1CCN(c2cncc(-c3cn(-c4cc(NC(=O)c5ccc(C(C)(C)C)s5)cnc4C)nn3)c2)CC1 [I-12] | 3 |
| COCCCN1CCN(c2cncc(-c3cn(-c4cc(NC(=O)c5cc(C)n(C(C)(C)C)n5)cnc4C)nn3)c2)CC1 [I-23] | 14 |
| Cc1ncc(NC(=O)c2ccc(C(C)(C)C)o2)cc1-n1cc(-c2cncc(N3CCN(C)CC3)c2)nn1 [I-2] | 2 |
